AC50 data for five molecules are collected here from PubChem BioAssay AID720605 (Broad Institute, 2013).

This assay deals with U-251 glioblastoma viability, Alamar Blue, 8-48 h. The assay is described as follows: cytotoxicity in U-251 CNS tumor cells – cell-based, Alamar Blue fluorescence, 8/24/48 h, dry powder, HRAS target identification, dose response (AID 720605).

`Cc1onc(C(=O)N2CCN(C(c3ccc(Cl)cc3)c3ccc(Cl)cc3)CC2)c1[N+](=O)[O-]`: the AC50 (usually the concentration giving half of the maximal activity seen) (measured here: 8 h treatment) is 383 nM, the AC50 (measured here: 24 h treatment) was 359 nM and the half-maximal activity concentration (AC50) (measured here: 48 h treatment) came to 293 nM.
Taken in the same sequence, the figures for `CC(C)(C)OC(=O)NCCOCCOCCOc1ccc(N(C(=O)CCl)C(C(=O)NCCc2ccccc2)c2cccs2)cc1Cl` (stereo not given) were 297 nM, 229 nM and 330 nM.
For `COC(=O)c1ccc([C@@H]2c3[nH]c4ccccc4c3C[C@@H](C(=O)OC)N2C(=O)CCl)cc1`, in that order: 14.4 nM, 42.7 nM and 45.4 nM.
Taken in the same sequence, the figures for `C#CCCCC(=O)NCCOCCOCCOc1ccc(N(C(=O)CCl)C(C(=O)NCCc2ccccc2)c2cccs2)cc1Cl` (stereo not given) were 1990 nM, 920 nM and 855 nM.
Consider `COc1ccc(N(C(=O)CCl)C(C(=O)NCCc2ccccc2)c2cccs2)cc1Cl` (stereo not given), for which the AC50 was 66.3 nM (measured here: 8 h treatment), 54.3 nM (measured here: 24 h treatment) and 51 nM (measured here: 48 h treatment).
